Measured values published in US10835533B2, “1 -((3S,4R)-4-(3-fluorophenyl)-1-(2-methoxyethyl)pyrrolidin-3-yl)-3-(4-methyl-3-(2-methylpyrimidin-5-yl)-1-phenyl-1H-pyrazol-5-yl)urea as a TrkA kinase inhibitor” (Array BioPharma Inc., priority 2014, dated 2020).

How the values were obtained:
Test in all cases: KinaseProfiler kinase profiling
Type in all cases: biochemical
Details in all cases: 10 μM, ATP near Km
AMPK(A1/B1/G1) = biological target: T1, AMPK(A1/B1/G1) (Homo sapiens, UniProt Q13131)
T1 construct: purchased Millipore, Inc. (KinaseProfiler service)
In short: (§1)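 ATP near Km for the individual kinase; inhibitor fixed at 10 μM. Figures are POC averages from duplicate determinations.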

AURKA = biological target: T2, AURKA (Homo sapiens, UniProt O14965)
T2 construct: purchased Millipore, Inc. (KinaseProfiler service)
In short: as §1

Axl = biological target: T3, Axl (Homo sapiens, UniProt P30530)
T3 construct: purchased Millipore, Inc. (KinaseProfiler service)
In short: as §1

CAMK1d = biological target: T4, CAMK1d (Homo sapiens, UniProt Q8IU85)
T4 construct: purchased Millipore, Inc. (KinaseProfiler service)
In short: as §1

CDK3/cyclinE = biological target: T5, CDK3/cyclinE (Homo sapiens, UniProt Q00526)
T5 construct: purchased Millipore, Inc. (KinaseProfiler service)
In short: as §1

CK2alpha2 = biological target: T6, CK2alpha2 (Homo sapiens, UniProt P19784)
T6 construct: purchased Millipore, Inc. (KinaseProfiler service)
In short: as §1

EphA2 = biological target: T7, EphA2 (Homo sapiens, UniProt P29317)
T7 construct: purchased Millipore, Inc. (KinaseProfiler service)
In short: as §1

EphA3 = biological target: T8, EphA3 (Homo sapiens, UniProt P29320)
T8 construct: purchased Millipore, Inc. (KinaseProfiler service)
In short: as §1

EphA4 = biological target: T9, EphA4 (Homo sapiens, UniProt P54764)
T9 construct: purchased Millipore, Inc. (KinaseProfiler service)
In short: as §1

EphB1 = biological target: T10, EphB1 (Homo sapiens, UniProt P54762)
T10 construct: purchased Millipore, Inc. (KinaseProfiler service)
In short: as §1

EphB4 = biological target: T11, EphB4 (Homo sapiens, UniProt P54760)
T11 construct: purchased Millipore, Inc. (KinaseProfiler service)
In short: as §1

FAK2 = biological target: T12, FAK2 (Homo sapiens, UniProt Q14289)
T12 construct: purchased Millipore, Inc. (KinaseProfiler service)
In short: as §1

FGFR3 = biological target: T13, FGFR3 (Homo sapiens, UniProt P22607)
T13 construct: purchased Millipore, Inc. (KinaseProfiler service)
In short: as §1

Fer = biological target: T14, Fer (Homo sapiens, UniProt P16591)
T14 construct: purchased Millipore, Inc. (KinaseProfiler service)
In short: as §1

Flt1 = biological target: T15, Flt1 (Homo sapiens, UniProt P17948)
T15 construct: purchased Millipore, Inc. (KinaseProfiler service)
In short: as §1

HIPK1 = biological target: T16, HIPK1 (Homo sapiens, UniProt Q86Z02)
T16 construct: purchased Millipore, Inc. (KinaseProfiler service)
In short: as §1

Haspin = biological target: T17, Haspin (Homo sapiens, UniProt Q8TF76)
T17 construct: purchased Millipore, Inc. (KinaseProfiler service)
In short: as §1

Hck = biological target: T18, Hck (Homo sapiens, UniProt P08631)
T18 construct: purchased Millipore, Inc. (KinaseProfiler service)
In short: as §1

JNK3 = biological target: T19, JNK3 (Homo sapiens, UniProt P53779)
T19 construct: purchased Millipore, Inc. (KinaseProfiler service)
In short: as §1

MAPKAP-K5 = biological target: T20, MAPKAP-K5 (Homo sapiens, UniProt Q8IW41)
T20 construct: purchased Millipore, Inc. (KinaseProfiler service)
In short: as §1

MKK6 = biological target: T21, MKK6 (Homo sapiens, UniProt P52564)
T21 construct: purchased Millipore, Inc. (KinaseProfiler service)
In short: as §1

MKNK2 = biological target: T22, MKNK2 (Homo sapiens, UniProt Q9HBH9)
T22 construct: purchased Millipore, Inc. (KinaseProfiler service)
In short: as §1

MSSK1 = biological target: T23, MSSK1 (Homo sapiens, UniProt Q9UPE1)
T23 construct: purchased Millipore, Inc. (KinaseProfiler service)
In short: as §1

MST1 = biological target: T24, MST1 (Homo sapiens, UniProt Q13043)
T24 construct: purchased Millipore, Inc. (KinaseProfiler service)
In short: as §1

MST3 = biological target: T25, MST3 (Homo sapiens, UniProt Q9Y6E0)
T25 construct: purchased Millipore, Inc. (KinaseProfiler service)
In short: as §1

Mer = biological target: T26, Mer (Homo sapiens, UniProt Q12866)
T26 construct: purchased Millipore, Inc. (KinaseProfiler service)
In short: as §1

PAK4 = biological target: T27, PAK4 (Homo sapiens, UniProt O96013)
T27 construct: purchased Millipore, Inc. (KinaseProfiler service)
In short: as §1

PKCeta = biological target: T28, PKCeta (Homo sapiens, UniProt P24723)
T28 construct: purchased Millipore, Inc. (KinaseProfiler service)
In short: as §1

PhKgamma2 = biological target: T29, PhKgamma2 (Homo sapiens, UniProt P15735)
T29 construct: purchased Millipore, Inc. (KinaseProfiler service)
In short: as §1

ROCK-I = biological target: T30, ROCK-I (Homo sapiens, UniProt Q13464)
T30 construct: purchased Millipore, Inc. (KinaseProfiler service)
In short: as §1

Rsk4 = biological target: T31, Rsk4 (Homo sapiens, UniProt Q9UK32)
T31 construct: purchased Millipore, Inc. (KinaseProfiler service)
In short: as §1

TAK1-TAB1 = biological target: T32, TAK1-TAB1 (Homo sapiens, UniProt O43318)
T32 construct: purchased Millipore, Inc. (KinaseProfiler service)
In short: as §1

TSSK1 = biological target: T33, TSSK1 (Homo sapiens, UniProt Q9BXA7)
T33 construct: purchased Millipore, Inc. (KinaseProfiler service)
In short: as §1

TSSK2 = biological target: T34, TSSK2 (Homo sapiens, UniProt Q96PF2)
T34 construct: purchased Millipore, Inc. (KinaseProfiler service)
In short: as §1

TrkA = biological target: T35, TrkA (Homo sapiens, UniProt P04629)
T35 construct: purchased Millipore, Inc. (KinaseProfiler service)
In short: as §1

ULK3 = biological target: T36, ULK3 (Homo sapiens, UniProt Q6PHR2)
T36 construct: purchased Millipore, Inc. (KinaseProfiler service)
In short: as §1

VRK2 = biological target: T37, VRK2 (Homo sapiens, UniProt Q86Y07)
T37 construct: purchased Millipore, Inc. (KinaseProfiler service)
In short: as §1

WNK2 = biological target: T38, WNK2 (Homo sapiens, UniProt Q9Y3S1)
T38 construct: purchased Millipore, Inc. (KinaseProfiler service)
In short: as §1

c-RAF = biological target: T39, c-RAF (Homo sapiens, UniProt P04049)
T39 construct: purchased Millipore, Inc. (KinaseProfiler service)
In short: as §1

mTOR = biological target: T40, mTOR (Homo sapiens, UniProt P42345)
T40 construct: purchased Millipore, Inc. (KinaseProfiler service)
In short: as §1

p70S6K = biological target: T41, p70S6K (Homo sapiens, UniProt P23443)
T41 construct: purchased Millipore, Inc. (KinaseProfiler service)
In short: as §1

T27 sequence (O96013 whole entry): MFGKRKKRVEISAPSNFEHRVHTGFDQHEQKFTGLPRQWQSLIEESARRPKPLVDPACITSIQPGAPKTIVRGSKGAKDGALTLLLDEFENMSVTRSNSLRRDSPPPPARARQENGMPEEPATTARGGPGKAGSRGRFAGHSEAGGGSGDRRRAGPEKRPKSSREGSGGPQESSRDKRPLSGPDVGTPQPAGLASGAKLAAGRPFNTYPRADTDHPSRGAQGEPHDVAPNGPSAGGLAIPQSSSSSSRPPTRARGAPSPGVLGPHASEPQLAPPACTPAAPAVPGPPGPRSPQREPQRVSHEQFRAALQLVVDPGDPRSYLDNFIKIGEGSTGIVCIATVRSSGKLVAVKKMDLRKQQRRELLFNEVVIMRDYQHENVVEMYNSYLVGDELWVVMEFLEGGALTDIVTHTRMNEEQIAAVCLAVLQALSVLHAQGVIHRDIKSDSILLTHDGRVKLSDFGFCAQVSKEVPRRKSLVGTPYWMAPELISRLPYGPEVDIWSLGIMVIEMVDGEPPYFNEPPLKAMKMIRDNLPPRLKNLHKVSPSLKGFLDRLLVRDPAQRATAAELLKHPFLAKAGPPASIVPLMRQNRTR
T8 sequence (P29320 21-983): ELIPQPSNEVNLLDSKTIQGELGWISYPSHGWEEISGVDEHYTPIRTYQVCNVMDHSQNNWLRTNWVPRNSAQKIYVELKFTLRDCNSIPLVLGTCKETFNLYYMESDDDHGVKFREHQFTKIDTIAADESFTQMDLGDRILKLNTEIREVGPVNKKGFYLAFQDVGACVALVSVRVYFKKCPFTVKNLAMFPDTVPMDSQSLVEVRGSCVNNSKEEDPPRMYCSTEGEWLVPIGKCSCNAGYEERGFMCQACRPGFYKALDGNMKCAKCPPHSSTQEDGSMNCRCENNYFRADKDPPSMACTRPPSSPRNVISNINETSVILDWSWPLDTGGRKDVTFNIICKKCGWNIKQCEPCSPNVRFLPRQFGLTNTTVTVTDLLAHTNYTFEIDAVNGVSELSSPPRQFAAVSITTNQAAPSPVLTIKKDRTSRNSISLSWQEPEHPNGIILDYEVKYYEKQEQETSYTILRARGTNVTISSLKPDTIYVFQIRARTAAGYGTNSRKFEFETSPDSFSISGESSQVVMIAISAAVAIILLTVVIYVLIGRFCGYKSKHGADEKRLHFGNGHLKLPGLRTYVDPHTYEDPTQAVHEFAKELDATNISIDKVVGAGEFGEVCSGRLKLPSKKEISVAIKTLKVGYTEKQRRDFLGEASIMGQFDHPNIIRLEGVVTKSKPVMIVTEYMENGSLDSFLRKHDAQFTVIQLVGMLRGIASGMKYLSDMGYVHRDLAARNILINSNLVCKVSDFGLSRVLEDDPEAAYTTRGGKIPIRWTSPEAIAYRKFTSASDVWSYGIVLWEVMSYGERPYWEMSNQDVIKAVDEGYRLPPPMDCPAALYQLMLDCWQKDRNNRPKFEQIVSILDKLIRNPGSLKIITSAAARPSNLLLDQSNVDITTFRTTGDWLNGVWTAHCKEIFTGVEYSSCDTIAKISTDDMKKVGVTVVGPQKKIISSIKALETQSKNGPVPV
T34 sequence (Q96PF2 whole entry): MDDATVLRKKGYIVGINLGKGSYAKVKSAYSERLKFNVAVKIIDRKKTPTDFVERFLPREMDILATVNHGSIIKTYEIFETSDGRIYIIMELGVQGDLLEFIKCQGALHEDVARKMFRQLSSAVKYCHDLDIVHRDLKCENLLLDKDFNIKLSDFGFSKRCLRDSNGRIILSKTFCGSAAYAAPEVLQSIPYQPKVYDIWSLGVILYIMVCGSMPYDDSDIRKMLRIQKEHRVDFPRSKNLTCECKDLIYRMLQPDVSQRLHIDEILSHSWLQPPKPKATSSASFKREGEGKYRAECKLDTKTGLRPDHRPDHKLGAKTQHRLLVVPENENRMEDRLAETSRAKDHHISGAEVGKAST
T32 sequence (O43318 with tags, fused parts or gaps limits assumed): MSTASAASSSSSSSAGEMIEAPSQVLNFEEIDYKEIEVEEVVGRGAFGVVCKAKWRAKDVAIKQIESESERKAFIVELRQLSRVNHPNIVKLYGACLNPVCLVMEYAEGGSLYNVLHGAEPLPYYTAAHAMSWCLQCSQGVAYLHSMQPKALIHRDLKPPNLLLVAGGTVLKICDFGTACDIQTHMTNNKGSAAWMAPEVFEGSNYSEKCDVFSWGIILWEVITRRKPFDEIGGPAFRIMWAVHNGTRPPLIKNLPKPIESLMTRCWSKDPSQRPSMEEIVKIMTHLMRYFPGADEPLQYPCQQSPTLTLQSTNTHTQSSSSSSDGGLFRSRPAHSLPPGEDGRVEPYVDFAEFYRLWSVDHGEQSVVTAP
T17 sequence (Q8TF76 whole entry): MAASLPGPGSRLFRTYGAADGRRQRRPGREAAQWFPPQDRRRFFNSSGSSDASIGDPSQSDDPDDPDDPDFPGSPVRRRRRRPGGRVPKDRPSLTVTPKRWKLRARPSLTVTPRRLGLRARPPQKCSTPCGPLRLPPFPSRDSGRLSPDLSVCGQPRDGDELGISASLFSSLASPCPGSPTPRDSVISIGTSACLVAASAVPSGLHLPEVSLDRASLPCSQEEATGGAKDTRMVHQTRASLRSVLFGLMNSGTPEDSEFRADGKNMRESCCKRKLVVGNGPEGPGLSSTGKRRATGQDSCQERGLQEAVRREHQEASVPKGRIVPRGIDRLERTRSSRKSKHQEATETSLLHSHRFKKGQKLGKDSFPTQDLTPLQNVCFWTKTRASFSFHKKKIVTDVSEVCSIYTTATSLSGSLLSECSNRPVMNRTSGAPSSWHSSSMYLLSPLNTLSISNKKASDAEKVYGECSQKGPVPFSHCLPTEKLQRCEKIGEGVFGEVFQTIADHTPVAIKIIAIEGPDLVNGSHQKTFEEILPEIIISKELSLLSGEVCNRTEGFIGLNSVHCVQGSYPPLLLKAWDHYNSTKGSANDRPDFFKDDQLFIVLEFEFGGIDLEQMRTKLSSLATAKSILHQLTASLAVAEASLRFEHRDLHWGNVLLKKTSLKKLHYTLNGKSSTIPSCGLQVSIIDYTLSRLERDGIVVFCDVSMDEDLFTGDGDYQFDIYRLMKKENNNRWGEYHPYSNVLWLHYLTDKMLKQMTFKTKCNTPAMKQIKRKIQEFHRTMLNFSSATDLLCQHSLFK
T25 sequence (Q9Y6E0 whole entry): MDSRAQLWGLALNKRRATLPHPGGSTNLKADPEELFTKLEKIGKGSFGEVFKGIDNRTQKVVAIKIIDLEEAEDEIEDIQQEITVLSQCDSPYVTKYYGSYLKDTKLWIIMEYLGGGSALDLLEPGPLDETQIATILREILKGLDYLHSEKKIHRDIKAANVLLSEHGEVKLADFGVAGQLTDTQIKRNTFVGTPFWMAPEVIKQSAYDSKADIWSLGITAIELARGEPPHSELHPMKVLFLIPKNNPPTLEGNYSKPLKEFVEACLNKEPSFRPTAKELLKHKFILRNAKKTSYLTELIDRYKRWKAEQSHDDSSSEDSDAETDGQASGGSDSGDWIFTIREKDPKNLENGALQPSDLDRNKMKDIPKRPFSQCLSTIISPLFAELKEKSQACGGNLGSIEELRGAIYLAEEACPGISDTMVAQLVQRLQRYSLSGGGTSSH
T39 sequence (P04049 whole entry): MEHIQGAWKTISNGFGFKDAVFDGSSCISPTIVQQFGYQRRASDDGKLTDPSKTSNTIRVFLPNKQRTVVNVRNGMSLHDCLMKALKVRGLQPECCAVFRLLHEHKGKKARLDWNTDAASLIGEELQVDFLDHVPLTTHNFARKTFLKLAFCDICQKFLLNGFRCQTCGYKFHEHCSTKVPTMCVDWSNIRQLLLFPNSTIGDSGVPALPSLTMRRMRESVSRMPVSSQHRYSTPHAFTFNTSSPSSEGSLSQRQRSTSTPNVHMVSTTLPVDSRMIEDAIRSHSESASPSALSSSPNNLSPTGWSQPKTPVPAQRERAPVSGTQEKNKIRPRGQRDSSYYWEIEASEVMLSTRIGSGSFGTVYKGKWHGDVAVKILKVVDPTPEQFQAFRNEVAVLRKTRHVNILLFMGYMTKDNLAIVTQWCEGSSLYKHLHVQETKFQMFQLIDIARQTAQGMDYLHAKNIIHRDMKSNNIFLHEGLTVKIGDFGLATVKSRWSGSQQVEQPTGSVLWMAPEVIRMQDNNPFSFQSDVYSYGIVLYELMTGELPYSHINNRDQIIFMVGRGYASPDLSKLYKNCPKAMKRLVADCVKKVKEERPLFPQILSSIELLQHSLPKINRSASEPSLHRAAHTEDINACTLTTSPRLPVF
T21 sequence (P52564 whole entry): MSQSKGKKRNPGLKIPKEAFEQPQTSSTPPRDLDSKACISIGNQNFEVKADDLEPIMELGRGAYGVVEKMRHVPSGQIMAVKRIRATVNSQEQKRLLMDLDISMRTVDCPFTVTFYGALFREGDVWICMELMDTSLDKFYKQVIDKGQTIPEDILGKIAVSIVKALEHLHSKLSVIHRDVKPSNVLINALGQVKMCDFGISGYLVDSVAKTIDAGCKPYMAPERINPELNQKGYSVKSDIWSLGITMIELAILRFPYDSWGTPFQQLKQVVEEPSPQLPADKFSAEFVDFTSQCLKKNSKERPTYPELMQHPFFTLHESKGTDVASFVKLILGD
T29 sequence (P15735 whole entry): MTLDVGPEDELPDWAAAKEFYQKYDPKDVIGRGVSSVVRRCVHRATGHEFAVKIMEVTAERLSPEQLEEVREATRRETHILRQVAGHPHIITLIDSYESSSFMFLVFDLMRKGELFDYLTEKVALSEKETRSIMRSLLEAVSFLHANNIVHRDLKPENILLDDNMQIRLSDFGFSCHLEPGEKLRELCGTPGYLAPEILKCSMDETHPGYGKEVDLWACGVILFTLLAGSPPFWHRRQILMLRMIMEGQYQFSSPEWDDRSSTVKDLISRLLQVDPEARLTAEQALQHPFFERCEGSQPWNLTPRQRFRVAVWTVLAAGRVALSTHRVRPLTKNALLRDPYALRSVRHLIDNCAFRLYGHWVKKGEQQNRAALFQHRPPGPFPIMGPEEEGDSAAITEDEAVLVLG

Avg POC (AMPK(A1/B1/G1)): 102.5 POC
Avg POC (AURKA): 115 POC
Avg POC (Axl): 115.5 POC
Avg POC (CAMK1d): 130 POC
Avg POC (CDK3/cyclinE): 94.5 POC
Avg POC (CK2alpha2): 106 POC
Avg POC (EphA2): 92.5 POC
Avg POC (EphA3): 95.5 POC
Avg POC (EphA4): 98 POC
Avg POC (EphB1): 105.5 POC
Avg POC (EphB4): 102 POC
Avg POC (FAK2): 92.5 POC
Avg POC (FGFR3): 108 POC
Avg POC (Fer): 103.5 POC
Avg POC (Flt1): 97 POC
Avg POC (HIPK1): 98.5 POC
Avg POC (Haspin): 96.5 POC
Avg POC (Hck): 108.5 POC
Avg POC (JNK3): 114.5 POC
Avg POC (MAPKAP-K5): 89.5 POC
Avg POC (MKK6): 107.5 POC
Avg POC (MKNK2): 111 POC
Avg POC (MSSK1): 127.5 POC
Avg POC (MST1): 107.5 POC
Avg POC (MST3): 103.5 POC
Avg POC (Mer): 147.5 POC
Avg POC (PAK4): 97 POC
Avg POC (PKCeta): 100 POC
Avg POC (PhKgamma2): 108 POC
Avg POC (ROCK-I): 98.5 POC
Avg POC (Rsk4): 105.5 POC
Avg POC (TAK1-TAB1): 101.5 POC
Avg POC (TSSK1): 104 POC
Avg POC (TSSK2): 108.5 POC
Avg POC (TrkA): 2.5 POC
Avg POC (ULK3): 107.5 POC
Avg POC (VRK2): 96 POC
Avg POC (WNK2): 92.5 POC
Avg POC (c-RAF): 101 POC
Avg POC (mTOR): 97.5 POC
Avg POC (p70S6K): 104 POC
SMILES: COCCN1C[C@@H](NC(=O)Nc2c(C)c(-c3cnc(C)nc3)nn2-c2ccccc2)[C@H](c2cccc(F)c2)C1 [Compound 1, 1-((3S,4R)-4-(3-fluorophenyl)-1-(2-methoxyethyl)pyrrolidin-3-yl)-3-(4-methyl-3-(2-methylpyrimidin-5-yl)-1-phenyl-1H-pyrazol-5-yl)urea]
